Test results from patent US10487219B2, “Method and compositions for cleaning cooking range exhaust systems” (NOVAPHARM RESEARCH (AUSTRALIA) PTY LTD, priority 2015, dated 2019).

Assay: Biocide migration test: biocide in strippable PV Acetate emulsion coating, film coated with cooking oil for 24 hrs, oil tested for presence of biocide
Type: physicochemical
Settings: for Leaching (migration) of the biocide from the coating into the oil: strippable PV Acetate emulsion coating film coated with cooking oil, 24 hrs, oil tested for presence of biocide; for Suitability as oil soluble biocide leaching from the dry film into oils deposited on the film: dry film in situ, oily deposits
Protocol: Initially biocides were selected for trial on the basis that they would be innocuous in a food preparation area. Many of those initially tested are food grade or similar low toxicity biocides. Biocides were tested by incorporating the biocide in the strippable PV Acetate emulsion coating formulation, coating a film of the coating with cooking oil and leaving it in place for 24 hrs and then testing the oil for presence of Biocide. The leaching of the biocide into the oil is considered a proxy for the ability of the film to prevent microbial degradation of the oily material coated thereon.

SMILES | Leaching (migration) of the biocide from the coating into the oil | Suitability as oil soluble biocide leaching from the dry film into oils deposited on the film
CCCCOC(=O)c1ccccc1 [butyl benzoate] | passed the above test | –
CCCCOC(=O)c1ccc(O)cc1 [butyl parabens, Butyl Parabens] | – | satisfactory
CCOC(=O)c1ccccc1 [ethylbenzoate] | passed the above test | –
COC(=O)c1ccccc1 [methyl benzoate] | passed the above test | –
OCCOc1ccccc1 [phenoxyethanol, Phenoxyethanol] | – | ineffective
CCCOC(=O)c1ccccc1 [propyl benzoate] | passed the above test | –
